Laboratory results: paper PMC11475570, “Impact of Optimized Ku–DNA Binding Inhibitors on the Cellular and In Vivo DNA Damage Response” (Cancers, 2024)

What was measured:
[1] = test system: A549 NSCLC adenocarcinoma xenograft; assay: A549 NSCLC xenograft (CDX), intratumoral Ku-DBi with or without IR; assay type: in vivo, mice; settings: for Ki-67 expression in tumors: IHC and Western blot
Procedure: The in vivo studies were conducted as approved by the Institutional Animal Care and Use Committee at Indiana University School of Medicine. A549 cells (~2.5 × 10^6) in 50% Matrigel were injected into the hind flanks of 8–10-week-old NOD.Cg-Rag1tm1Mom Il2rgtm1Wjl/SzJ (NRG) mice (IVT, In vivo Therapeutics Core, Indiana University Melvin and Bren Simon Comprehensive Cancer Center, Indianapolis, IN, USA) as previously described. Tumor volumes were monitored by electronic caliper measurement. Mice were randomized into groups of 3 or 4 using a random group generator; 6 different scenarios were generated, and the scenario with the most similar tumor volume averages across groups was selected. Treatments were initiated when tumors were ~600 mm^3. Tumors were administered Ku-DBi (30 µL of 10 mM) or vehicle (30 µL of DMSO) via intratumoral injection 4 h before 5 Gy irradiation of the tumor with a single dose of X-rays (250 kVp; dose rate = 1.4 Gy/min; 2 cm × 2 cm field) under isoflurane anesthesia. […] Mice were sacrificed 2 h post-irradiation (or 2 h post-sham irradiation); tumors were excised and processed for immunohistochemistry (IHC) assays. Cell-free protein extracts were prepared to assess DNA-PKcs autophosphorylation and γ-H2AX levels.
Protein lysates, ranging from 20 to 30 μg, were separated by SDS-PAGE (4–20% Mini Protean TGX Gels, BioRad, Hercules, CA, USA) and transferred onto PVDF membranes (Bio-Rad) through wet transfer. Membranes blocked in 0.5% Tween and 3% BSA in 1× TBS for 1 h were probed with the following primary antibodies: Phospho-DNA PKcs (S2056) (Cat: ab124918, Abcam, Cambridge, UK), total DNA-PKcs (Cat: sc-5282, Santa Cruz Biotechnology, Dallas, TX, USA), and γ-H2AX pS139 (Cat: 613401, BioLegend, San Diego, CA, USA). […] All primary antibodies were prepared with 3% BSA and 0.02% NaN3 in TBS with 0.5% Tween. Goat anti-rabbit or anti-mouse IgG (H + L)–HRP conjugates (Cat: 170-6515 or 170-6516, Bio-Rad) were used as secondary antibodies to detect these proteins. Imaging, densitometric analysis, and quantification of protein expression were performed as previously described.
Excised tumors were fixed in 4% paraformaldehyde (PFA) solution in PBS for 24 h at 4 °C. After fixation, tumors were transferred to 70% ethanol and paraffin embedding. Sectioning was completed by the Indiana University Histology Core at the IU School of Medicine. Representative 3 μm-thick sections for each treatment were stained with H and E (HE; Harris hematoxylin, regressive method) for histologic examination or were processed for Ki-67 IHC immunodetection. Briefly, paraffin-embedded sections were deparaffinized in a xylene series (4 × 3 min) and rehydrated in a series of graded alcohol dilutions (100%, 95%, 70%, and ddH2O, 2 × 2 min each). […]

[2] = test system: MDA-MB-436; assay: Bleomycin-sensitization activity, CCK-8; assay type: cell-based, Human; settings: BRCA1 mutant MDA-MB-436
Procedure: (§1) Cell metabolism/viability was assessed using a mitochondrial metabolism assay (CCK-8) kit (Cell Counting Kit-8, Cat: CK04, Dojindo Laboratories, Rockville, MD, USA) as previously described. Briefly, cells were seeded at a density of 3 × 10^3 cells per well in 96-well plates and allowed to adhere and stretch for 18–24 h prior to treatment. Cells were pre-treated with Ku-DBi for 24 h before bleomycin treatments. Subsequently, cells were incubated for an additional 48 h at 37 °C after which CCK-8 assay was performed. The absorbance of the formed formazan product in each well was measured at 450 nm and compared to vehicle-treated controls to determine percent cell viability. The results represent the average and SEM of triplicate determinations.

[3] = test system: MDA-MB-468; assay: Bleomycin-sensitization activity, CCK-8; assay type: cell-based, Human; settings: BRCA1 wild-type MDA-MB-468
Procedure: as §1

[4] = target: T1, Ku 70/80 (Homo sapiens, UniProt P12956+P13010); assay: EMSA Ku–DNA binding inhibition; settings: 32P-labeled 30-bp duplex DNA, purified Ku 70/80, mean and SD of triplicate
T1 construct: made in house; host or cells: baculovirus-infected Sf9 cells
Procedure: (§2) The inhibitory activity of Ku-DBis on Ku-DNA binding was evaluated in vitro using Electrophoretic mobility shift assays (EMSA) with a [^32P]-labeled 30-bp duplex DNA and purified Ku 70/80. Kinase assays were performed to measure the DNA-dependent transfer of [^32P] from γ-[^32P] ATP to a synthetic p53-based peptide substrate, both as previously described. Both EMSA and DNA-PK inhibitor titration assays were performed in triplicate. Data were fit to standard binding curves using GraphPad Prism to determine IC50 values.

[5] = target: T2, DNA-PK (Homo sapiens, UniProt P12956+P13010); assay: DNA-PK kinase assay (phosphate transfer to p53 peptide); assay type: biochemical
T2 construct: made in house; Ku 70/80 from baculovirus-infected Sf9 cells
Procedure: as §2

T2 sequence (P12956 whole entry): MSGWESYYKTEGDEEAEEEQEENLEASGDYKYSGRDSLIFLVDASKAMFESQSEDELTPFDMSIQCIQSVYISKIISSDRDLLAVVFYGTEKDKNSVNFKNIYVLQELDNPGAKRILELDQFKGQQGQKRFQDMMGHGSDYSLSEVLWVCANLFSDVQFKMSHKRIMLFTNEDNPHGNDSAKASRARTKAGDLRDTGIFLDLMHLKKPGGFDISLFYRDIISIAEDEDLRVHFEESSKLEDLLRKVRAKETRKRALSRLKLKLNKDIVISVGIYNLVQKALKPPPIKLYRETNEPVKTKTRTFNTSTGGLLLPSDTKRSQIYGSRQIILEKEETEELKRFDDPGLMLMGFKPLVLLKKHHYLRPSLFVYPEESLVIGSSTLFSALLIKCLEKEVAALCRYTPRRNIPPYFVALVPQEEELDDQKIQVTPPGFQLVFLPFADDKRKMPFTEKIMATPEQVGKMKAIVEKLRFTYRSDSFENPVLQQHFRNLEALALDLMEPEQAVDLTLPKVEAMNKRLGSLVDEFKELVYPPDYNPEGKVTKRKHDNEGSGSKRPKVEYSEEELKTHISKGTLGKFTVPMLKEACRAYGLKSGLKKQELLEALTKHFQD
T2 sequence (P13010 whole entry): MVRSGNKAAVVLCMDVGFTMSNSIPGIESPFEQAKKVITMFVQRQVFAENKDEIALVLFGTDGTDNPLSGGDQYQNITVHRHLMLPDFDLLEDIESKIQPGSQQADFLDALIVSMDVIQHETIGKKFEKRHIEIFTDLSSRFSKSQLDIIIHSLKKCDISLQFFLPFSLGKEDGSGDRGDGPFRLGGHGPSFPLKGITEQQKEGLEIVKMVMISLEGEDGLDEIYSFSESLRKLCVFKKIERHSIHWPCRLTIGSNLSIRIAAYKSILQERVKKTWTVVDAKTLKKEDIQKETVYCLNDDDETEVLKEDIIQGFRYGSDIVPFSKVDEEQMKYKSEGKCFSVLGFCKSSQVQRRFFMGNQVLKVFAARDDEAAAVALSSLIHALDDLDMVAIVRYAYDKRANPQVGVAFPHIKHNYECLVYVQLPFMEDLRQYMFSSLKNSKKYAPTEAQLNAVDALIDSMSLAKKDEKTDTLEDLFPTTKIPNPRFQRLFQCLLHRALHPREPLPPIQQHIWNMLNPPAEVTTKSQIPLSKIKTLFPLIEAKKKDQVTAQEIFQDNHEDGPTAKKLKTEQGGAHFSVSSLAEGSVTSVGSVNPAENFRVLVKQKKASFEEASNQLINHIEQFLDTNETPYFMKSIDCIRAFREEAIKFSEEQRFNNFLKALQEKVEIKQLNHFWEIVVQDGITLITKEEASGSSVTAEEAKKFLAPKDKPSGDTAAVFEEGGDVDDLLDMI
T1 sequence (P12956 whole entry): as the sequence (P12956 whole entry) above
T1 sequence (P13010 whole entry): as the sequence (P13010 whole entry) above

IC50 [4]: 4.15 ± 1.07 µM
DNA-PK inhibitory activity, fold more active than fluoro-modified counterparts (3618 and 3649) [5]: ~ 2.5 fold
IC50 ([5]; DNA-dependent phosphate transfer to synthetic p53 peptide, purified DNA-PK, mean and SD of triplicate): 0.77 ± 0.19 µM
SMILES: COc1ccc(-c2ccc(/C=C3\C(=O)N(c4cccc(C(=O)O)c4)c4ccccc43)o2)cc1C(=O)Nc1cccc(OC(F)(F)F)c1 [GL-3392]
Ki-67 expression in tumors ([1]; 3392 intratumoral plus 5 Gy IR): statistically significant decrease in the Ki-67 expression
γ-H2AX in tumors ([1]; 3392 intratumoral plus 5 Gy IR, Western blot): further exacerbated in the combination-treated tumors
IR-induced DNA-PKcs autophosphorylation in tumors ([1]; intratumoral 30 µL of 10 mM, 4 h before 5 Gy, tumors taken 2 h post-irradiation, Western blot): effectively reversed the IR-induced DNA-PKcs autophosphorylation
Ki-67 expression in tumors ([1]; single-agent 3392, intratumoral): limited effects
Change in sensitivity to bleomycin [2]: decrease in sensitivity to bleomycin
Change in sensitivity to bleomycin [3]: increase in sensitivity
